Measured values reported in PubChem BioAssay (NCI).
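Protocol summary: plate cells (96-well), add compound at 5 concentrations, incubate 48 h, interpolate endpoints linearly. Here, GI50 denotes the concentration required for 50% inhibition of growth. TGI marks complete inhibition of growth.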

What was measured:
Test in all cases: inhibition of tumour cell growth, NCI panel, 48 h
[1] = system: IGROV1 ovarian
[2] = system: BT-549 breast
[3] = system: MDA-MB-435
[4] = system: CCRF-CEM leukemia
[5] = system: OVCAR-8 ovarian
[6] = system: HL-60(TB) leukemia
[7] = system: NCI-H23 lung
[8] = system: HS 578T breast
[9] = system: HCT-116 colon
[10] = system: NCI-H226 lung
[11] = system: COLO 205 colon
[12] = system: OVCAR-5 ovarian
[13] = system: MDA-MB-468 breast
[14] = system: HT29 colon
[15] = system: NCI-H522 lung
[16] = system: 786-0 renal
[17] = system: A498 renal
[18] = system: OVCAR-4 ovarian
[19] = system: M14 melanoma
[20] = system: A549 NSCLC
[21] = system: SN12C renal
[22] = system: EKVX NSCLC
[23] = system: DU-145 prostate
[24] = system: SK-OV-3 ovarian
[25] = system: HOP-92 NSCLC
[26] = system: SF-268 CNS
[27] = system: MCF7 breast
[28] = system: ACHN renal
[29] = system: HCT-15 colon
[30] = system: CAKI-1 renal
[31] = system: UACC-257 melanoma
[32] = system: SW-620 colon
[33] = system: HCC-2998 colon
[34] = system: T-47D breast
[35] = system: MALME-3M melanoma
[36] = system: U251 CNS
[37] = system: HOP-62 NSCLC
[38] = system: RPMI-8226 leukemia
[39] = system: TK-10 renal
[40] = system: K-562 leukemia
[41] = system: SR leukemia
[42] = system: OVCAR-3 ovarian
[43] = system: SF-295 CNS
[44] = system: NCI-H460 lung
[45] = system: SF-539 CNS
[46] = system: PC-3 prostate
[47] = system: LOX IMVI melanoma
[48] = system: UACC-62 melanoma
[49] = system: NCI/ADR-RES ovarian
[50] = system: KM12 colon
[51] = system: RXF 393 renal
[52] = system: SNB-19 CNS
[53] = system: SK-MEL-5 melanoma
[54] = system: MOLT-4 leukemia
[55] = system: SK-MEL-28 melanoma

`c1n[nH]cc1-c1nc2ccc3[nH]ncc3c2c2c1CC1(CC2)COC1` showed a GI50 [1] of 19.3 µM, a TGI [1] of 57.3 µM and a GI50 [2] of 4.09 µM. It also gave a TGI [2] of 16.6 µM, a GI50 [3] of 14.4 µM and a TGI [3] of 32.4 µM. For the same compound, the GI50 [4] was 29.9 µM, the TGI [4] was > 100 µM and the GI50 [5] was 16.3 µM. It also gave a TGI [5] of 35.5 µM, a GI50 [6] of 13.6 µM and a TGI [6] of 39.3 µM. For the same compound, the GI50 [7] was 15.1 µM, the TGI [7] was 32.7 µM and the GI50 [8] was 8.53 µM. For the same compound, the TGI [8] was 39.3 µM, the GI50 [9] was 6.02 µM and the TGI [9] was 37.7 µM. For the same compound, the GI50 [10] was 16 µM, the TGI [10] was 37.1 µM and the GI50 [11] was 6.13 µM. The TGI [11] was 21.2 µM, the GI50 [12] was 25.6 µM and the TGI [12] was 77.7 µM. For the same compound, the GI50 [13] was 3.53 µM, the TGI [13] was 13 µM and the GI50 [14] was 26.3 µM. For the same compound, the TGI [14] was > 100 µM, the GI50 [15] was 3.43 µM and the TGI [15] was 17.1 µM. For the same compound, the GI50 [16] was 13.4 µM, the TGI [16] was 32.7 µM and the GI50 [17] was 15 µM. It also gave a TGI [17] of 30.9 µM, a GI50 [18] of 25 µM and a TGI [18] of 70.4 µM. For the same compound, the GI50 [19] was 12.9 µM, the TGI [19] was 28 µM and the GI50 [20] was 27.8 µM. For the same compound, the TGI [20] was > 100 µM, the GI50 [21] was 13.9 µM and the TGI [21] was 38 µM. The GI50 [22] was 22.4 µM, the TGI [22] was 83.6 µM and the GI50 [23] was 26.2 µM. For the same compound, the TGI [23] was 95.5 µM, the GI50 [24] was 5.9 µM and the TGI [24] was 34.3 µM. The GI50 [25] was 23.1 µM, the TGI [25] was 63.1 µM and the GI50 [26] was 16.2 µM. The TGI [26] was 40.2 µM, the GI50 [27] was 20.4 µM and the TGI [27] was 69.5 µM. The GI50 [28] was 16.8 µM, the TGI [28] was > 100 µM and the GI50 [29] was 23.2 µM. The TGI [29] was > 100 µM, the GI50 [30] was 19.2 µM and the TGI [30] was 86.5 µM. It also gave a GI50 [31] of 17 µM, a TGI [31] of 39 µM and a GI50 [32] of 4.98 µM. It also gave a TGI [32] of 52.6 µM, a GI50 [33] of 15.5 µM and a TGI [33] of 40.6 µM. The GI50 [34] was 12.7 µM, the TGI [34] was 57.3 µM and the GI50 [35] was 15.7 µM. For the same compound, the TGI [35] was 30.1 µM, the GI50 [36] was 17.7 µM and the TGI [36] was > 100 µM. It also gave a GI50 [37] of 18.2 µM, a TGI [37] of 47.3 µM and a GI50 [38] of 21.3 µM. For the same compound, the TGI [38] was 68 µM, the GI50 [39] was 15 µM and the TGI [39] was 67.6 µM. The GI50 [40] was 13.7 µM, the TGI [40] was > 100 µM and the GI50 [41] was 3.36 µM. For the same compound, the TGI [41] was 16.9 µM, the GI50 [42] was 13.7 µM and the TGI [42] was 59.2 µM. For the same compound, the GI50 [43] was 23.4 µM, the TGI [43] was 58.4 µM and the GI50 [44] was 17.1 µM. The TGI [44] was 35.9 µM, the GI50 [45] was 12.2 µM and the TGI [45] was 25.5 µM. For the same compound, the GI50 [46] was 26.5 µM, the TGI [46] was > 100 µM and the GI50 [47] was 11.3 µM. For the same compound, the TGI [47] was 24.6 µM, the GI50 [48] was 5.76 µM and the TGI [48] was 18.7 µM. For the same compound, the GI50 [49] was > 100 µM, the TGI [49] was > 100 µM and the GI50 [50] was 22.3 µM. The TGI [50] was 51.8 µM, the GI50 [51] was 4.52 µM and the TGI [51] was 17.6 µM. The GI50 [52] was 17.3 µM, the TGI [52] was 68.1 µM and the GI50 [53] was 16.3 µM. For the same compound, the TGI [53] was 30.1 µM, the GI50 [54] was 15.5 µM and the TGI [54] was 48.2 µM. The GI50 [55] was 12.9 µM and the TGI [55] was 27.7 µM.
